According to ChEMBL document CHEMBL1128811, “Isolation and structure of the exceptional Pterobranchia human cancer inhibitors cephalostatins 16 and 171” (1995):

What was measured:
Assay type in all cases: functional
Tumor Cell line [1] = assay: In vitro cytotoxic potency against 60 human tumor cell lines at 10e-7 M concentration
Tumor Cell line [2] = assay: In vitro cytotoxic potency against 60 human tumor cell lines at 10e-8 M concentration
P388 = assay: Effective dose against P388 cell line […]; details: Mus musculus, read-out: ED50 (the source's name)

SMILES	GI50 (Tumor Cell line [1]) [nM]	GI50 (Tumor Cell line [2]) [nM]	EC50 (P388) [ng/mL]
C[C@@H]1[C@]2(O[C@H]3C=C4[C@@H]5CC[C@H]6Cc7nc8c(nc7C[C@]6(C)[C@H]5C[C@@H](O)[C@]4(C)[C@]31O)C[C@@H]1CC[C@H]3C4=CC[C@@H]5[C@H](C)[C@@]6(OC[C@]45C(=O)C[C@@H]3[C@@]1(C)C8)OC(C)(C)C[C@H]6O)O[C@](C)(CO)C[C@H]2O [CEPHALOSTATIN 1]	~1		
C[C@@H]1[C@H]2CC=C3[C@@H]4CC[C@H]5Cc6nc7c(nc6C[C@]5(C)[C@@]4(O)CC(=O)[C@@]32CO[C@]12OC(C)(C)C[C@H]2O)C[C@@H]1CC[C@H]2C3=C[C@@H]4O[C@@]5(CC[C@](C)(O)CO5)[C@@H](C)[C@]4(O)[C@@]3(C)[C@H](O)C[C@@H]2[C@@]1(C)C7 [CEPHALOSTATIN 16]		~1	< 1
